We go through 21 molecules from ChEMBL document CHEMBL1150487, “Cyanoguanidine bioisosteres in potassium channel openers: Evaluation of 3,4-disubstituted-1,2,5-thiadiazole-1-oxides” (Bioorg Med Chem Lett, 1996).

What all share (type): functional
For test [1], the species on record is Rattus norvegicus. Briefly: Membrane potential change (fluorescence-based in vitro assay using DIBAC4 as indicator) in A-10 smooth muscle cell, to estimate potassium channel opening activity at 10 uM.
Test [2] is filed under the species Rattus norvegicus. Briefly: Membrane potential change (fluorescence-based in vitro assay using DIBAC4 as indicator) in A-10 smooth muscle cell, to estimate potassium channel opening activity at 1 uM.
Test [3] is filed under the species Rattus norvegicus. In words: Membrane potential change (fluorescence-based in vitro assay using DIBAC4 as indicator) in A-10 smooth muscle cell, to estimate potassium channel opening activity at 0.1 uM.

As for `CC(C)Nc1n[s+]([O-])nc1Nc1cc(Cl)cc(Cl)c1` (stereo unspecified), the Change was -9.36% in test [1], -5.37% in test [2] and 2.12% in test [3].

For `CCCNc1n[s+]([O-])nc1Nc1ccccc1` (stereo unspecified), the Change is -1.05% in test [1], -4.86% in test [2] and -3.75% in test [3].

For the molecule `CCCCNc1n[s+]([O-])nc1Nc1cc(Cl)cc(Cl)c1` (stereo unspecified), the Change was -44.7% in test [1], -10.3% in test [2] and 1.29% in test [3].

Consider `[O-][s+]1nc(Nc2cc(Cl)cc(Cl)c2)c(NC2CC2)n1` (stereo unspecified), for which the Change in test [1] was -3.96%; in test [2], -1.1%; in test [3], 0.95%.

As for `[O-][s+]1nc(NCCCc2ccccc2)c(Nc2cc(Cl)cc(Cl)c2)n1` (stereo unspecified), the results for the Change in test [1] and in test [2] were 14.1% and -19.7%, respectively.

With `[O-][s+]1nc(NCc2ccccc2)c(Nc2cc(Cl)cc(Cl)c2)n1` (stereo unspecified), the Change is 0.84% in test [1], -0.91% in test [2] and 7.83% in test [3].

As to `CCCNc1n[s+]([O-])nc1Nc1cc(Cl)cc(Cl)c1` (stereo unspecified), the results for the Change in test [1], in test [2] and in test [3] were -11.1%, 5.85% and 8.06%, respectively.

As to `[O-][s+]1nc(Nc2cc(Cl)cc(Cl)c2)c(NC2CCCC2)n1` (stereo unspecified), the Change was -4.17% in test [1], -1.36% in test [2] and -5.82% in test [3].

For `[O-][s+]1nc(NCCc2ccccc2)c(Nc2cc(Cl)cc(Cl)c2)n1` (stereo unspecified), the figures for the Change in test [2] and in test [3] were -1.29% and -1.01%, respectively.

On to `CCCCCNc1n[s+]([O-])nc1Nc1cc(Cl)cc(Cl)c1` (stereo unspecified), for which the Change in test [1] is -26.3%; in test [2] it was -10.6%; in test [3] it was 8.48%.

As for `CC(C)CNc1n[s+]([O-])nc1Nc1cc(Cl)cc(Cl)c1` (stereo unspecified), the Change was 10.8% in test [1], -3.59% in test [2] and -1.32% in test [3].

As to `CNc1n[s+]([O-])nc1Nc1cc(Cl)cc(Cl)c1` (stereo unspecified), the Change was -33.6% in test [1], -25.1% in test [2] and -16% in test [3].

Regarding `[O-][s+]1nc(Nc2cc(Cl)cc(Cl)c2)c(NC2CCC2)n1` (stereo unspecified), the Change in test [1] is -21.8%; in test [2], -4.23%; in test [3], -5.89%.

`[O-][s+]1nc(Nc2cc(Cl)cc(Cl)c2)c(NC2CCCCC2)n1` (stereo unspecified): the Change is -17.7% in test [1], -2.39% in test [2] and 2.05% in test [3].

For the molecule `Nc1n[s+]([O-])nc1Nc1cc(Cl)cc(Cl)c1` (stereo unspecified), the Change in test [1] was -4.58%; in test [2] it was -4.81%; in test [3] it was 10.2%.

Take `CC(N/C(=N\C#N)Nc1ccncc1)C(C)(C)C` (stereo unspecified): the values for the Change in test [1], in test [2] and in test [3] were -57.4%, -45.6% and -5.89%, respectively.

`CC(C)(C)CNc1n[s+]([O-])nc1Nc1cc(Cl)cc(Cl)c1` (stereo unspecified): the Change in test [1] was 1.84%; in test [2], 5.58%; in test [3], 1.77%.

For `CCCCCNc1n[s+]([O-])nc1Nc1ccccc1` (stereo unspecified), the Change in test [1] is -5.23%; in test [2], -7.68%; in test [3], -3.76%.

As to `CC(C)CCNc1n[s+]([O-])nc1Nc1cc(Cl)cc(Cl)c1` (stereo unspecified), the Change in test [1] is -45.5%; in test [2] it was -12%; in test [3], 10.7%.

Consider `CCC(C)Nc1n[s+]([O-])nc1Nc1cc(Cl)cc(Cl)c1` (stereo unspecified), for which the Change in test [1] is -19%; in test [2], 1.42%; in test [3], -0.43%.

On to `[O-][s+]1nc(NCCCCc2ccccc2)c(Nc2cc(Cl)cc(Cl)c2)n1` (stereo unspecified), for which the Change in test [1] was 4.02%; in test [2], -6.18%; in test [3], -7.2%.
